According to patent publication US20050008664A1, “Compositions and methods related to lipid:emodin formulations” (Board of Regents, The University of Texas System, priority 2002, published 2005):

How the values were obtained:
[1] = test system: tetracycline regulatable 32D-P210 cell line; assay: MTT assay of cell growth, 3 day exposure to emodin; assay type: cell-based; details: emodin solubilized in DMSO, MTT assay at 72 hours, read-out: IC 50, inhibition of cellular growth
Experimental: In Vitro: A tetracycline regulatable 32D-P210 cell line was cultured in RPMI 1640 with 10% FCS and 10% Wehi supernatant and cultured at 37° C. Emodin was solubilized in DMSO at a concentration of 0.4 M for in vitro assays. A concentration of 3×10^4 cells/ml were used in a 24 well plate for a 3 day exposure to emodin. Emodin was assayed at 60 μM, 30 μM, and 10 μM concentrations. At 72 hours, a MTT assay was performed to provide a colorometric analysis of cell growth.

leukemia = assay: In vivo study of alkaline emodin preparation in leukemia-injected C3H-HEJ mice
Experimental: In vivo: The mouse strain C3H-HEJ (8-10 weeks old) were used for in vivo studies. Emodin was prepared in an alkaline preparation at 10 mg/ml, and was administered to the animals via tail vein injections. One cohort of animals received a single dose of emodin equal to 43 mg/kg per animal. Two other cohorts received either two doses of drug, administered on consecutive days, or there doses of drug, administered on consecutive days. The total concentration of drug administered were 86 mg/kg and 129 mg/kg, respectively. Animals were followed until death, euthanized upon detection of illness, or euthanized at 100 days post leukemia injection.

Cc1cc(O)c2c(c1)C(=O)c1cc(O)cc(O)c1C2=O [emodin, 3-methyl-1,6, 8 trihydroxyanthra-quinone]
IC50 [1]: ~10 µM | tolerability of the preparation by the animal (leukemia; alkaline preparation at pH 10, tail vein injection, some bruising of the tail noted): moderately well tolerated | lifespan of animals injected with leukemia (leukemia; alkaline preparation, tail vein injections, 43, 86 or 129 mg/kg total, untreated 25 days, animals sacrificed at 100 days): 100 days
